Publication PMC3731320, “Identification of Benzimidazole Diamides as Selective Inhibitors of the Nucleotide-Binding Oligomerization Domain 2 (NOD2) Signaling Pathway” (PLoS ONE, 2013)
pIC50: −log10 of the molar value. “Also recorded” adds a separate entry of the source. Read-outs that look alike come from different tables or passages of the source.

Experiments:
[1] = test system: TNFR1; assay: TNFα-stimulated (TNFR1-induced) IL-8 release in 293/hNOD2 cells; format: cell-based, human; settings: read-out: IC50 293/hNOD2 TNFα, IL-8 end-point, 20 ng/mL rhTNFα
Method: After 24 hours the amount of IL-8 secreted into the medium was determined by homogeneous time resolved fluorescence (HTRF) assay by the direct addition of a 1:1 mix of europium cryptate and XL665-conjugated anti-IL-8 antibodies according to the manufacturer's instructions (Cisbio).

[2] = test system: NOD2; assay: MDP-stimulated IL-8 secretion in NOD2 BacMam transduced HEK293T cells; format: cell-based, human
Method: Over-expression of NOD1 and NOD2 was achieved by transduction of HEK293T cells with either NOD1 or NOD2 BacMam recombinant baculoviruses. […] The effect of compounds on activator-independent NOD1/2 signaling was determined by 30 minute pre-treatment of cells (in 96-well plates seeded the previous day in DMEM high glucose with 10% FBS at 60,000 cells/well) followed by infection with NOD1 or NOD2 BacMam virus (MOI = 50). IL-8 was measured in conditioned medium after 24 hour incubation at 37 °C. To determine the effect of compounds on NOD1/2 activator-dependent IL-8 secretion in BacMam transduced HEK293T, the cells were infected with virus for 6 hours (MOI = 50), and following the removal of virus the cells were cultured over-night. The next day medium was again replaced and cells pre-treated with compound for 30 minutes followed by stimulation with either MDP (30 ng/mL) or iE-DAP (300 ng/mL). IL-8 was measured in conditioned medium by HTRF after 24-hour incubation at 37 °C.

[3] = test system: NOD2; assay: Western blot of MAPK phosphorylation and IκBα in MDP-stimulated 293/hNOD2 cells; format: cell-based, human; settings: GSK669 at 1 and 10 μM
Method: Confluent cultures of 293/-hNOD1 and -hNOD2 cells in 24-well plates were serum-starved over-night. The next day, cells were pre-incubated for 1 hour with compound and then stimulated for 1 hour with either 50 μg/mL Tri-DAP or 25 μg/mL MDP, respectively. Whole cell lysates were prepared in 1X cell lysis buffer (Cell Signaling Technology) containing additional inhibitors of aspartic, cysteine and serine proteases and aminopeptidases (protease inhibitor cocktail set III, EMD Biosciences) and inhibitors of multiple phosphatases (phosphatase inhibitor cocktail sets II and III, Sigma-Aldrich). The levels of phosphorylated and total p38, JNK, ERK1/2 and total IκBα were determined by immunoblotting of ∼20 μg protein per sample using the following primary antibodies: phospho-p38 MAPK (12F8, #4631), p38 MAPK (#9212), phospho-JNK (#9251), JNK (#9252) and IκBα (#9242) all purchased from Cell Signaling Technology, and phospho-ERK1/2 (sc-7383) and ERK1/2 (sc-94) antibodies from Santa Cruz Biotechnology.

[4] = target: T1, full length human FLAG-6His tagged RIP2 (Homo sapiens, UniProt O43353); assay: RIP2 kinase autophosphorylation assay (ADP-Glo); format: biochemical; settings: autophosphorylation of RIPK2; 10 μM ATP
T1 construct: autophosphorylation of full length human FLAG-6His tagged RIP2; FLAG; 6His; made in house
T1 sequence (O43353 whole entry): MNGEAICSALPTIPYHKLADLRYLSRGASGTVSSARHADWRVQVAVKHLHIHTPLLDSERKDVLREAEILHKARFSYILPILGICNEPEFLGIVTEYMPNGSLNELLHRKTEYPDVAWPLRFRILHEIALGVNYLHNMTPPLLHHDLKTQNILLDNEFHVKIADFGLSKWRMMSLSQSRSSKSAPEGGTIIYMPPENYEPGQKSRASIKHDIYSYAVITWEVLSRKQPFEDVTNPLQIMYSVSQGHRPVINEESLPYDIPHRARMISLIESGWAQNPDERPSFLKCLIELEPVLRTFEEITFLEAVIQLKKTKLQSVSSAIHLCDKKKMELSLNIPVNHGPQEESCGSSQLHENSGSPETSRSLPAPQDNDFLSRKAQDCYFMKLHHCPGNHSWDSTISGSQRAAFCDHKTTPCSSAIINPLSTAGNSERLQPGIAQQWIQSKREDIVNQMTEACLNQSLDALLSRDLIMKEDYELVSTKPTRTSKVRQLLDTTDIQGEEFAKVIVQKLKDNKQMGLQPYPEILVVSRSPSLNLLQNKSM
Method: Direct effects of compounds on RIP2 kinase activity was determined by autophosphorylation of full length human FLAG-6His tagged RIP2 expressed and purified from baculovirus. Enzyme was pre-incubated with compounds in assay buffer (50 mM HEPES pH 7.5, 25 mM MgCl2, 0.05%[w/v] CHAPS, 1 mM DTT and 0.05 mg/mL BSA) in 384-well plates, and then incubated with 10μM ATP for 2 hours at room temperature. The amount of ADP generated was measured using the ADP-Glo universal ADP detection assay for kinases (Promega) and luminescence quantified on a ViewLux imager.

[5] = test system: HCT116 cells; assay: Uptake of MDP-rhodamine by HCT116 cells (fluorescence microscopy); format: cell-based, human; settings: GSK669 up to 20 μM, chlorpromazine 20 μM, 1–4 hour
Method: HCT116 cells seeded onto glass cover-slips at low density were pre-treated with GSK669 or the endocytosis inhibitor chlorpromazine for 30 minutes before addition of 2.5 μg/mL MDP-rhodamine. Live cells were viewed periodically over 6-hours incubation at 37 °C using a Nikon eclipse TE2000-E fluorescent inverted microscope fitted with a CCTV camera and rhodamine filter.

Q: What does the source list for `O=C(Cn1c(CCNC(=O)c2ccccc2)nc2ccccc21)Nc1ccc2c(c1)CCC2` [Compound 1, N-(2-(1-(2-((2,3-dihydro-1H-inden-5-yl)amino)-2-oxoethyl)-1H-benzo[d]imidazol-2-yl)ethyl)benzamide]?
A: pIC50 ([1]; listed as GSK669): < 4.52; pIC50 ([1]; listed as GSK669 (1)): < 4.00; effect on MDP response in NOD2 transduced cells, single concentration ([2]; HEK293T, 6 hours virus then MDP 30 ng/mL, GSK669 5 μM, IKK inhibitor 0.5 μM): selectively blocked the MDP response; pIC50 ([2]; Homo sapiens, HEK-293T, 6 hours transduction, then MDP 30 ng/mL 24 hours, IL-8, read-out: IC50, MDP response in NOD2 transduced HEK293T cells): 6.30; effect on MDP-induced p-p38, p-JNK and total IκBα [3]: prevented MDP-induced increases in p-p38 and p-JNK and MDP-induced reduction in total IκBα; pIC50 [4]: < 4.00; effect on uptake of Rhodamine-MDP into cells [5]: unaffected; also recorded: does not block cellular uptake of MDP
